Results taken from PMC5380659, “Unique charge-dependent constraint on collagen recognition by integrin α10β1” (Matrix Biology, 2017).
Entries after “also recorded” stand apart in the source; their conditions may differ.

Tests used:
[1] = system: human recombinant GST-α10 I domain; assay: Solid-phase binding assay (SPBA) of wild-type α10 I domain; settings: short THPs, 2 mM Mg^2 +, 1 h, Fig. 4A
Experimental: The α10 I domain was applied to the collagen II and III Toolkits in the presence or absence of Mg^2 +, and was detected using anti-GST, as described in Experimental: data are shown in Fig. 1. The background response is indicated by wells coated with the control peptide, GPP10 (corresponding to the host sequence), or BSA.
(§1) I domain adhesion was determined colorimetrically, as described, here termed solid phase binding assay (SPBA). Peptides were coated at 10 μg/ml for 1 h at 22 °C on Immulon-2 HB 96-well plates (Thermo Life Sciences, Basingstoke, UK), and blocked for 1 h with 200 μl of TBS containing 50 mg/ml bovine serum albumin. Wells were washed four times with 200 μl of the adhesion buffer (TBS with 1 mg/ml bovine serum albumin) before adding 100 μl of adhesion buffer containing 10 μg/ml of recombinant GST I domains in the presence of either 2 mM MgCl2 or EDTA for 1 h at room temperature. Wells were washed five times with 200 μl of adhesion buffer containing MgCl2 or EDTA, before adding 100 μl of adhesion buffer containing the anti-GST-HRP conjugate at 1:10,000 dilution for 1 h at room temperature. After washing, colour was developed using an ImmunoPure TMB Substrate Kit (Pierce) according to the manufacturer's instructions.

[2] = system: collagen-binding integrins; set-up: method as in 3 sources, ref [7], [8] = [7]; PMID 10778855; doi:10.1016/S0092-8674(00)80622-4; 7 Emsley J. Knight C.G. Farndale R.W. Barnes M.J. Liddington R.C. Structural basis of collagen recognition by integrin alpha2beta1 Cell 101 1 2000 47 56 10778855 10.1016/S0092-8674(00)80622-4 || [8]; PMID 16326707; doi:10.1074/jbc.M509818200; 8 Raynal N. Hamaia S.W. Siljander P.R. Maddox B. Peachey A.R. Fernandez R. Foley L.J. Slatter D.A. Jarvis G.E. Farndale R.W. Use of synthetic peptides to locate novel integrin alpha2beta1-binding moti ||| ref [8], [10] = [8]; PMID 16326707; doi:10.1074/jbc.M509818200; 8 Raynal N. Hamaia S.W. Siljander P.R. Maddox B. Peachey A.R. Fernandez R. Foley L.J. Slatter D.A. Jarvis G.E. Farndale R.W. Use of synthetic peptides to locate novel integrin alpha2beta1-binding moti || [10]; PMID 16043429; doi:10.1074/jbc.M502431200; 10 Kim J.K. Xu Y. Xu X. Keene D.R. Gurusiddappa S. Liang X. Wary K.K. Hook M. A novel binding site in collagen type III for the integrins, alpha 1beta 1 and alpha 2beta 1 J. Biol. Chem. 280 2005 32512 ||| ref [11] = [11]; PMID 10986291; doi:10.1074/jbc.M007668200; 11 Xu Y. Gurusiddappa S. Rich R.L. Owens R.T. Keene D.R. Mayne R. Hook A. Hook M. Multiple binding sites in collagen type I for the integrins α1β1 and α2β1 J. Biol. Chem. 275 2000 38981 38989 10986291; settings: cited from earlier work
Source text: Many related motifs have now been identified using the Collagen Toolkits developed in this laboratory for the purpose. These are libraries of overlapping peptides of 27 amino acids of collagen primary sequence (guest sequence), flanked ...

[3] = system: α10β1; assay: Overall recognition by α10β1 (I domain and C2C12-α10β1 cells, summary); settings: abstract and discussion; I domain and/or C2C12-α10β1 cells
Experimental: as §1
The mouse myoblast cell line, C2C12, (control and transfectants, C2C12-α1β1, C2C12-α2β1, C2C12-α10β1 or C2C12-α11β1) was maintained in RPMI medium containing 10% fetal bovine serum, 2 mM glutamine, 100 IU/ml penicillin, 100 μg/ml streptomycin, and 2.5 μg/ml amphotericin. Cells were harvested by centrifugation, washed, and suspended at 0.5 × 10^6/ml in Tris-buffered saline supplemented with 5.5 mM glucose and either 2 mM EDTA or 2 mM MgCl2. SPBA was performed as follows: 100 μl of the cell suspension was added to peptide-coated wells [42] at 20 °C for 60 min. Cell adhesion was determined colorimetrically after lysis, using a lactate dehydrogenase (LDH)-based cell detection kit (Roche Diagnostics) according to the supplier's instructions.
To quantitate C2C12-α10β1 binding to collagen peptides, we used the impedance-based xCELLigence system (Acea) that allows label-free, dynamic monitoring of cell adhesion in real-time. The assay system expresses the adhesion-dependent rise in well impedance in units of cell index (CI), defined as (Rn − Rb) / 15; where Rn is the electrical impedance of each cell-containing well and Rb is the background impedance of the well with medium alone

[4] = system: integrin α1β1; set-up: method as in 3 sources, ref [4]; PMID 19693543; doi:10.1007/s00441-009-0834-6; 4 Barczyk M. Carracedo S. Gullberg D. Integrins Cell Tissue Res. 339 1 2010 269 280 19693543 10.1007/s00441-009-0834-6 PMC2784866 ||| ref [12] = [12]; PMID 22654115; doi:10.1074/jbc.M112.353144; 12 Hamaia S.W. Pugh N. Raynal N. Nemoz B. Stone R. Gullberg D. Bihan D. Farndale R.W. Mapping of potent and specific binding motifs, GLOGEN and GVOGEA, for integrin alpha1beta1 using collagen toolkits ||| ref not given; settings: cited from earlier work
Source text: The collagen-binding integrin family is complete, with four established members, α1β1, α2β1, α10β1 and α11β1. These are highly-conserved, heterodimeric receptors with an important structural feature in common, the presence of an I (inserted) domain which contains the metal ion-dependent adhesion site (MIDAS). The MIDAS is a constellation of electronegative residues at the distal surface of this 200-residue domain that, in the resting, non-ligated state, can co-ordinate a Mg^2 + ion. […] Many related motifs have now been identified using the Collagen Toolkits developed in this laboratory for the purpose. These are libraries of overlapping peptides of 27 amino acids of collagen primary sequence (guest sequence), flanked ... || Why would collagen II differ in this respect?

[5] = system: Other I domains that lack such a positive residue; assay: SPBA of I domains that lack the positive residue (wild type); format: binding, human; settings: I domains lacking a positive residue at position 215
Experimental: Fig. 8 Arginine substitution of I domain surface reduces binding to Toolkit peptide III-4. Wild type I domain from α1, α2 and α10 were allowed to adhere to Toolkit peptide III-4 that contains GROGER, as described in Fig. 1, and binding is shown in A, B and C, respectively. In D and E, the natural glutamine residues of α1, Q214, and of α2, Q215, was replaced with arginine. In F, the natural arginine, R215, of α10 was replaced with glutamine.
as §1

| Substance | Binding of α10 I domain to short triple-helical peptides [1] | Ligand of collagen-binding integrins, highest affinity motif ([2]; in collagens I and II, ref [7], [8]) | Recognition by α10β1, summary [3] | Affinity for integrin α1β1 ([4]; ref [12]) | Affinity for integrin α1β1, discussion ([4]; ref not given) | Ligand of collagen-binding integrins, GROGER ([2]; ref [8], [10]) | Binding by other I domains [5] |
| --- | --- | --- | --- | --- | --- | --- | --- |
| GFOGER [THP containing GFOGER served as positive control, reference compound] | less well | highest affinity ligand | – | – | – | – | – |
| GLOGEN [short THP containing GLOGEN] | bound strongly | – | selective ligand in preference to GFOGER; also recorded: high-affinity site | high-affinity ligand | high-affinity site | – | – |
| GROGER [short triple-helical peptide containing GROGER] | – | – | only weakly recognised by α10β1; also recorded: compromised in the context of α10β1; also recorded: α10-repellent | – | – | quite a good ligand | bind GROGER well |
